Measurements taken from PubChem BioAssay (NCI).
“And” between values parts separate entries of the source, which are not always exact repeats. Identical values can stand only once.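 Growth conditions: 96-well plates. Treatment: test compound, 48 hours, 5 concentrations. Analysis: linear interpolation between bracketing concentrations; unreached endpoints set to highest concentration. GI50 = concentration required for 50% inhibition of growth. TGI: total growth inhibition.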

Key:
Experiment in all cases: DTP human tumour cell line panel, 48 h
[1] = tested on: A549 NSCLC
[2] = tested on: CAKI-1 renal
[3] = tested on: HCC-2998 colon
[4] = tested on: HOP-92 NSCLC
[5] = tested on: MDA-MB-231 breast
[6] = tested on: NCI-H23 lung
[7] = tested on: SK-OV-3 ovarian
[8] = tested on: SR leukemia
[9] = tested on: TK-10 renal
[10] = tested on: UACC-62 melanoma

| Compound | GI50 [1] [µM] | TGI [1] | GI50 [2] [µM] | TGI [2] | GI50 [3] [µM] | TGI [3] | GI50 [4] [µM] | TGI [4] | GI50 [5] [µM] | TGI [5] [µM] | GI50 [6] [µM] | TGI [6] | GI50 [7] [µM] | TGI [7] | GI50 [8] [µM] | TGI [8] | GI50 [9] [µM] | TGI [9] | GI50 [10] [µM] | TGI [10] |
| --- | --- | --- | --- | --- | --- | --- | --- | --- | --- | --- | --- | --- | --- | --- | --- | --- | --- | --- | --- | --- |
| CC(C)(C)n1cc(-c2ccnc(NCCNS(=O)(=O)c3ccc(Br)cc3)c2)c(-c2cccc(O)c2)n1 | 2.19 | 6.5 µM | 2.17 | 6.07 µM | 1.84 | 3.53 µM | 1.51 | 3.86 µM | 1.91 | 4.07 | 1.85 | 3.97 µM | 2.29 | 6.1 µM | 0.286 | 6.16 µM | 2.24 | 5.93 µM | 1.57 | 3.08 µM |
| COc1ccc2nc3ccc(OC)cc3c(SCCCN)c2c1 | 12.9 | 38.5 µM | 9.79 | 26 µM | 13.2 | 30.7 µM | 3.59 | 13.1 µM | 9.78 | 25.3 | 5.37 | 15.4 µM | 14.2 | 29.9 µM | 1.54 | 3.64 µM | 2.03 | 10.5 µM | 12 | 39.4 µM |
| Cc1c(C(C)C)cc(OCCO)cc1C(C)C | – | > 100 µM | – | > 100 µM | – | > 100 µM | – | 57 µM | – | 80 | – | > 100 µM | – | > 100 µM | – | 73.8 µM | – | > 100 µM | – | > 100 µM |
| COc1cc(C2C3=C(COC3=O)N(CCO)c3cc4c(cc32)CCC4)cc(OC)c1O (centres undefined) | 0.499 | > 32.5 µM | 0.508 | > 26.3 µM | 0.221 | 1.29 µM | > 32.5 | > 32.5 µM | 0.76 | > 32.5 | 0.402 | > 32.5 µM | 0.168 | > 32.5 µM | 0.192 | > 32.5 µM | > 32.5 | > 32.5 µM | 0.134 | > 32.5 µM |
| COc1cccc(-c2nn(-c3ccccc3)cc2-c2ccnc(NCCNC(=O)Nc3ccc(Cl)c(Cl)c3)c2)c1 | 3.38 | 12.5 µM | 2.79 | 11.1 µM | 1.88 | 3.78 µM | 1.37 | 5.48 µM | 2.04 | 5.04 | 2.46 | 11.6 µM | 4.06 | 14.4 µM | 1.51 | 6.02 µM | 4.78 | 18.9 µM | 1.84 | 4.51 µM |
| COc1ccc(S(=O)(=O)N/N=C/C(=O)O)cc1 | – | > 1250 µM | – | 1230 µM | – | > 1250 µM | – | 1110 µM | – | > 1250 | – | 867 µM | – | > 1250 µM | – | 603 µM | – | > 1250 µM | – | 984 µM |
| COc1ccccc1C(=O)c1cnc(NC2CCN(S(C)(=O)=O)CC2)nc1N | 4.68 | > 25 µM | 5.84 | > 25 µM | 13 | > 25 µM | 6.14 | > 22.9 µM | 7.27 | > 25 | 5.71 | > 25 µM | > 25 | > 25 µM | 2 | > 19.5 µM | 5.92 | > 25 µM | 6.68 | > 25 µM |
| O=C1c2c(O)cccc2C(C(=O)CCCCC(=O)C2c3cccc(O)c3C(=O)c3c(O)cccc32)c2cccc(O)c21 | 1.1 | 1.06 µM and 2.43 µM | 3.24 | 8.43 µM and 9.38 µM | 1.07 | 2.63 µM and 3.14 µM | 1.3 | 1.69 µM and 2.8 µM | – | 0.9 | 1.25 | 1.56 µM and 2.59 µM | 0.921 | 1.14 µM and 1.75 µM | 1.41 | 25 µM and 2.87 µM | 2.85 | 3.65 µM and 8.35 µM | 1.62 | 2.48 µM and 5.78 µM |
| O=C1OC(c2ccc(O)cc2)(c2ccc(O)cc2)c2cccc3cccc1c23 | 14.4 | 36.2 µM | 18.1 | 44.6 µM | 15.8 | 32.5 µM | 12.2 | 26.8 µM | 14.2 | 35.5 | 17.8 | 37.2 µM | 18.8 | 33.1 µM | 10.8 | 38.3 µM | 18 | 34 µM | 11.3 | 25.7 µM |
